Measured values: US20080312271A1, “AZABENZIMIDAZOLYL COMPOUNDS” (Pfizer Inc., priority 2006, published 2008)
Like-named read-outs stand apart in the source and are kept apart here.

Biological target: T1, mGluR2 receptor (metabotropic glutamate receptor 2) (Homo sapiens, UniProt Q14416)
T1 construct: expressed in transfected cells
Experiment: mGluR2 Potentiator Screen, FLIPR, EC10-EC20 glutamate challenge
Type: cell-based
Outline: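 Potentiator assay in HEK cells stably expressing mGluR2 with Gα15, glutamine-depleted overnight, loaded with Fluo-4 plus probenecid and GPT/pyruvate to remove glutamate. Peak fluorescence ratio curve-fitted, with maximum set by on-plate standards.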

[1] = HEK cells stably transfected with mGluR2 and Gα15, FLIPR (Fluo-4), potentiation of an EC10 to EC20 concentration of glutamate, Table 9
[2] = mGluR2 potentiator screen, FLIPR, EC10-EC20 glutamate challenge

T1 sequence (Q14416 19-872, species assumed): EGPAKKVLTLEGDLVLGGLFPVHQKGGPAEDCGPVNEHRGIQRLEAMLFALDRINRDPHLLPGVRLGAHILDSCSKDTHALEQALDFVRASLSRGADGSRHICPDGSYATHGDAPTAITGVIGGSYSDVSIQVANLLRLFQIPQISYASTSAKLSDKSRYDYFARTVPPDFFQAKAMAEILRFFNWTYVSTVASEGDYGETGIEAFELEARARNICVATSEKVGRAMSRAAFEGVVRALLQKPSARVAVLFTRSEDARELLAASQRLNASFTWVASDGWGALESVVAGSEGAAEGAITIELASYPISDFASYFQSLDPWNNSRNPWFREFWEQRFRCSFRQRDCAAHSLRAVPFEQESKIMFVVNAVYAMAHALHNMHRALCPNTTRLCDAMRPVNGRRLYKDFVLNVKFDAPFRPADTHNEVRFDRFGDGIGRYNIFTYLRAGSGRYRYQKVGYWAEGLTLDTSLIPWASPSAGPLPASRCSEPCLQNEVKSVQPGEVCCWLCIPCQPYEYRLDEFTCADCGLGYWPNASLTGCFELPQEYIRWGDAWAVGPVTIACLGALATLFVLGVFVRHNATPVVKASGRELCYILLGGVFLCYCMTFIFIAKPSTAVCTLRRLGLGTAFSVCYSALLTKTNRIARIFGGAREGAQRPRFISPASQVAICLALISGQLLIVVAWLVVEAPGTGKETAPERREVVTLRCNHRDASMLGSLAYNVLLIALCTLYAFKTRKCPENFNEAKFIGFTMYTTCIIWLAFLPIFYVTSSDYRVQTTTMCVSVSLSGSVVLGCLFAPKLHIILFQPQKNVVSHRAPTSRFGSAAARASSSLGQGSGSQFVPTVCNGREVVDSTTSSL

| EC50 | SMILES | other results |
| --- | --- | --- |
| 284 nM | CC(C)Oc1ccc([C@H]2CCN(Cc3nc4cnccc4n3C)C[C@H]2C)c(Cl)c1 (relative stereo) [compound 170] |  |
| 12.5 nM | C[C@@H]1CN(Cc2nc3nccc4c3n2CCC4)CC[C@@H]1c1ccc(Cl)cc1F (relative stereo) [Example 129, 2-{[Cis-4-(4-chloro-2-fluorophenyl)-3-methylpiperidin-1-yl]methyl}-5,6-dihydro-4H-imidazo[4,5,1-ij]-1,7-naphthyridine] | EC50 [1]: 12.5 nM |
|  | COc1ccc(C2CCN(Cc3nc4cnccc4n3C)CC2)c(C(F)(F)F)c1 [compound 270] | EC50 [2]: 494 nM |
| > 172 nM | CC(C)Oc1ccc([C@H]2CCN(Cc3nc4cnccc4n3C)C[C@H]2C)c(F)c1 (relative stereo) [compound 167] |  |
| 993 nM | C[C@@H]1CN(Cc2nc3ncccc3n2C)CC[C@@H]1c1ccc(C(F)(F)F)cc1F (single isomer, unassigned) [compound 139] |  |
| 1090 nM | CC(C)Oc1ccc([C@H]2CCN(Cc3nc4cnccc4n3C)C[C@H]2C)cc1F (relative stereo) [compound 181] |  |
| 396 nM | C[C@@H]1CN(Cc2nc3ncccc3n2C)CC[C@@H]1c1ccc(C(F)(F)F)cc1Cl (single isomer, unassigned) [compound 163] |  |
| 396 nM | CCCOc1ccc(Cl)cc1C1CCN(Cc2nc3cnccc3n2C)CC1 [compound 39] |  |
| 72.6 nM | C#CCOc1ccc(Cl)cc1C1CCN(Cc2nc3ncccc3n2C)CC1 [compound 45] |  |
| 392 nM | CCCOc1ccc(Cl)cc1C1CCN(Cc2nc3ncccc3n2C)CC1 [compound 38] |  |
| 482 nM | Cn1c(CN2CCC(c3ccc(F)c(Cl)c3)CC2)nc2cnccc21 [compound 102] |  |
| 203 nM | C[C@@H]1CN(Cc2nc3ncccc3n2C)CC[C@@H]1c1ccc(F)c(Cl)c1 (relative stereo) [compound 111] |  |
| 301 nM | CC1CN(Cc2nc3ncccc3n2C)CCC1c1ccccc1F (centres unmarked) [compound 72] |  |
| 78.5 nM | COc1cc(F)ccc1[C@H]1CCN(Cc2nc3ncccc3n2C)C[C@H]1C (relative stereo) [compound 132] |  |
| 5950 nM | Cn1c(CN2CCC(c3cc(C(F)(F)F)ccc3F)CC2)nc2ncccc21 [compound 58] |  |
| 42.8 nM | COc1cc(C(F)(F)F)ccc1[C@H]1CCN(Cc2nc3ncccc3n2C)C[C@H]1C (relative stereo) [compound 114] |  |
|  | Cn1c(CN2CCC(c3ccc(OC(F)F)cc3)CC2)nc2ncccc21 [compound 264] | EC50 [2]: 554 nM |
| 434 nM | Cn1c(CN2CCC(F)(c3ccc(C(F)(F)F)cc3)CC2)nc2ncccc21 [compound 99] |  |
|  | C[C@@H]1CN(Cc2nc3ncccc3n2C)CC[C@@H]1c1ccc(OC(F)F)cc1F (relative stereo) [compound 257] | EC50 [2]: 67.7 nM |
| > 1920 nM | C[C@@H]1CN(Cc2nc3ncccc3n2C)CC[C@@H]1c1ccc(OC(F)F)cc1 (single isomer, unassigned) [compound 224] |  |
|  | CC(C)Oc1ccc(C2CCN(Cc3nc4ncccc4n3C)CC2)c(Cl)c1 [compound 269] | EC50 [2]: 65.7 nM |
| 60.6 nM | CC(C)Oc1ccc([C@H]2CCN(Cc3nc4cnccc4n3C)C[C@H]2C)c(F)c1 (single isomer, unassigned) [compound 219] |  |
| 610 nM | CC(C)Oc1cc(F)ccc1[C@H]1CCN(Cc2nc3ncccc3n2C)C[C@H]1C (relative stereo) [compound 191] |  |

| EC50 | SMILES | other results |
| --- | --- | --- |
| 124 nM | Cn1c(CN2CCC(c3cccc(C(C)(C)C)c3)CC2)nc2ncccc21 [compound 79] |  |
| 27.1 nM | Cn1c(CN2CCC(c3ccc(Cl)cc3F)CC2)nc2ncccc21 [compound 110] |  |
|  | Cc1cc(OC(F)(F)F)ccc1C1CCN(Cc2nc3cnccc3n2C)CC1 [compound 240] | EC50 [2]: 96.8 nM |
| 617 nM | Cc1cccc(C2CCN(Cc3nc4ncccc4n3C)CC2)c1 [compound 62] |  |
| > 1260 nM | C[C@@H]1CN(Cc2nc3cnccc3n2C)CC[C@@H]1c1cc(F)c(F)cc1F (single isomer, unassigned) [compound 226] |  |
| 30.2 nM | COc1cc(F)ccc1[C@H]1CCN(Cc2nc3nccc4c3n2CCC4)C[C@H]1C (relative stereo) [Example 134, 2-{[Cis-4-(4-fluoro-2-methoxyphenyl)-3-methylpiperidin-1-yl]methyl}-5,6-dihydro-4H-imidazo[4,5,1-ij]-1,7-naphthyridine] | EC50 [1]: 30.2 nM |
| 639 nM | CCOc1ccc([C@H]2CCN(Cc3nc4ncccc4n3C)C[C@H]2C)cc1 (relative stereo) [compound 120] |  |
|  | C[C@@H]1CN(Cc2nc3cnccc3n2C)CC[C@@H]1c1ccc(C(F)(F)F)c(Cl)c1 (relative stereo) [compound 235] | EC50 [2]: 135 nM |
|  | Cc1cc(C(F)(F)F)ccc1C1CCN(Cc2nc3cnccc3n2C)CC1 [compound 242] | EC50 [2]: 85.8 nM |
| > 1990 nM | C[C@@H]1CN(Cc2nc3ncccc3n2C)CC[C@@H]1c1ccc(C(F)(F)F)cc1 (single isomer, unassigned) [compound 119] |  |
| 30 nM | C[C@@H]1CN(Cc2nc3ncccc3n2C)CC[C@@H]1c1ccc(C(F)(F)F)cc1Cl (relative stereo) [compound 151] |  |
| 985 nM | Cn1c(CN2CCC(c3cc(F)cc(F)c3)CC2)nc2ncccc21 [compound 91] |  |
| 353 nM | Cc1cc(F)ccc1C1CCN(Cc2nc3ncccc3n2C)CC1 [compound 69] |  |
|  | Cc1cc(OC(F)(F)F)ccc1C1CCN(Cc2nc3ncccc3n2C)CC1 [compound 241] | EC50 [2]: 50.7 nM |
|  | C[C@@H]1CN(Cc2nc3ncccc3n2C)CC[C@@H]1c1ccc(F)c(F)c1F (relative stereo) [compound 249] | EC50 [2]: 113 nM |
| < 31.3 nM | C[C@@H]1CN(Cc2nc3cnccc3n2C)CC[C@@H]1c1ccc(OC(F)(F)F)cc1F (single isomer, unassigned) [compound 159] |  |
| 124 nM | COc1cc(OC(F)(F)F)ccc1[C@H]1CCN(Cc2nc3cnccc3n2C)C[C@H]1C (relative stereo) [compound 214] |  |
| 105 nM | Cn1c(CN2CCC(c3ccccc3C(F)(F)F)CC2)nc2ncccc21 [compound 53] |  |
| 75 nM | C[C@@H]1CN(Cc2nc3cnccc3n2C)CC[C@@H]1c1ccc(C(F)(F)F)cc1 (relative stereo) [compound 71] |  |
| 88.6 nM | Cc1cc(F)ccc1[C@H]1CCN(Cc2nc3ncccc3n2C)C[C@H]1C (relative stereo) [compound 206] |  |
|  | Cn1c(CN2CCC(c3ccc(C(F)(F)F)cc3Cl)CC2)nc2cnccc21 [compound 273] | EC50 [2]: 85 nM |
|  | C[C@@H]1CN(Cc2nc3ncccc3n2C)CC[C@@H]1c1ccc(F)cc1OC(F)F (relative stereo) [compound 274] | EC50 [2]: 75.5 nM |
| 111 nM | CC1CN(Cc2nc3ncccc3n2C)CCC1c1ccc(C(F)(F)F)cc1 (centres unmarked) [compound 70] |  |

| EC50 | SMILES | other results |
| --- | --- | --- |
| 880 nM | Cn1c(CN2CCC(c3cccc(Cl)c3)CC2)nc2ncccc21 [compound 78] |  |
| > 1350 nM | C[C@@H]1CN(Cc2nc3cnccc3n2C)CC[C@@H]1c1ccc(OC(F)F)cc1 (relative stereo) [compound 178] |  |
| 88.2 nM | C[C@@H]1CN(Cc2nc3cnccc3n2C)CC[C@@H]1c1ccc(Cl)cc1Cl (relative stereo) [compound 156] |  |
| 144 nM | Cn1c(CN2CCC(c3cc(C(F)(F)F)cc(C(F)(F)F)c3)CC2)nc2ncccc21 [compound 65] |  |
|  | C[C@@H]1CN(Cc2nc3ncccc3n2C)CC[C@@H]1c1ccc(C(F)(F)F)c(Cl)c1 (relative stereo) [compound 234] | EC50 [2]: 101 nM |
| 24.8 nM | C[C@@H]1CN(Cc2nc3ncccc3n2C)CC[C@@H]1c1ccc(C(F)(F)F)cc1C(F)(F)F (relative stereo) [compound 149] |  |
| 102 nM | Cc1cc(Cl)ccc1[C@H]1CCN(Cc2nc3ncccc3n2C)C[C@H]1C (relative stereo) [compound 160] |  |
|  | Cn1c(CN2CCC(c3ccc(OC(F)F)cc3Cl)CC2)nc2ncccc21 [compound 266] | EC50 [2]: 54.9 nM |
| 2800 nM | COc1ccc(C2CCN(Cc3nc4ncccc4n3C)CC2)cc1F [compound 92] |  |
|  | C[C@@H]1CN(Cc2nc3cnccc3n2C)CC[C@@H]1c1ccc(OC(F)(F)F)cc1Cl (single isomer, unassigned) [compound 254] | EC50 [2]: 86.6 nM |
| > 5360 nM | CCOc1ccc([C@H]2CCN(Cc3nc4cnccc4n3C)C[C@H]2C)cc1F (relative stereo) [compound 194] |  |
| 324 nM | Cn1c(CN2CCC(c3cc(Cl)ccc3F)CC2)nc2ncccc21 [compound 75] |  |
| 367 nM | Cn1c(CN2CCC(c3ccc(F)c(Cl)c3)CC2)nc2cccnc21 [compound 103] |  |
| 62.6 nM | FC(F)(F)c1ccc(C2CCN(Cc3nc4nccc5c4n3CCC5)CC2)cc1 [Example 126, 2-({4-[4-(trifluoromethyl)phenyl]-piperidin-1-yl}methyl)-5,6-dihydro-4H-imidazo[4,5,1-ij]-1,7-naphthyridine] | EC50 [1]: 62.6 nM |
| 253 nM | C[C@@H]1CN(Cc2nc3ncccc3n2C)CC[C@@H]1c1ccc(OC(F)(F)F)c(Cl)c1 (relative stereo) [compound 213] |  |
| 262 nM | C[C@@H]1CN(Cc2nc3cnccc3n2C)CC[C@@H]1c1ccc(OC(F)(F)F)cc1 (relative stereo) [compound 158] |  |
| 29.8 nM | CC(C)Oc1ccc([C@H]2CCN(Cc3nc4ncccc4n3C)C[C@H]2C)c(F)c1 (single isomer, unassigned) [compound 217] |  |
| 108 nM | C[C@@H]1CN(Cc2nc3ncccc3n2C)CC[C@@H]1c1ccc(Cl)cc1C(F)(F)F (relative stereo) [compound 207] |  |
| 393 nM | Cc1cc(Cl)ccc1[C@H]1CCN(Cc2nc3cnccc3n2C)C[C@H]1C (relative stereo) [compound 161] |  |
| 110 nM | C[C@@H]1CN(Cc2nc3cnccc3n2C)CC[C@@H]1c1ccc(Cl)cc1C(F)(F)F (relative stereo) [compound 208] |  |
| 448 nM | Cn1c(CN2CCC(c3cc(C(F)(F)F)ccc3F)CC2)nc2cnccc21 [compound 57] |  |

| SMILES | EC50 | other results |
| --- | --- | --- |
| COc1ccccc1[C@]1(C)CCN(Cc2nc3ncccc3n2C)C[C@@H]1C [compound 56] | 3820 nM |  |
